US20220127297A1, “Novel Antibacterial 3"-Derivatives Of 4,6-Disubstituted 2,5-Dideoxystreptamine Aminoglycoside Antibiotics” (AGILeBiotics B.V., priority 2018, published 2022)
Converted amounts (≈) assume the structure as drawn.

What was measured:
E. coli ATCC25922 strain = test: MIC 50, broth micro-dilution, wild-type Escherichia coli; assay type: cell-based; conditions: Escherichia coli, ATCC25922, 18 h, MH2, 18 h
Text: 3.1 Against E. coli Strains
(§1) Tested reference compounds. Amikacin sulfate (Cat. No. 01693, Chem-Impex), Gentamicin sulfate (Cat. No. G4918, Sigma Aldrich).
Microbial strains. E. coli ATCC 25922, E. coli ATCC 25922/pET-9b(+), E. coli ATCC 25922/pAT21-1, E. coli ATCC 25922/pBluescript::AAC(6′)-Ie/APH(2″)-Ia, E. coli ATCC 25922/pBlue_lpp_aacC3_rrnC, E. coli ATCC 25922/pSET152.
Culture media and equipment. BBL™ Mueller Hinton Broth 2 (Lot. BCBW1143, Cat. No. 70192, Sigma); Kanamycin A (Cat. No. A1493, AppliChem); 96-well deep well plate, 1 mL (Cat. No. 0030506.200, Eppendorf); Plate lids (Cat. No. 0030131.525, Eppendorf); 96-well plate, F-bottom (Cat. No. 781602, Brand; Incubator, Infors Multitron Pro); Laminar flow (Heraeus KS12); UV/VIS meter (Eppendorf BioPhotometer Plus); Platereader (Tecan Sunrise).
(§2) Compound preparation. Compounds were prepared in MH2 media at a concentration of 5 mM and stored at 4° C. For testing, solutions of 128 μM were prepared in MH2. Out of these working solutions, 400 μL was transferred to wells in the first column of 96-well deep well plates. Each compound was transferred in triplicate. Plates were previously filled with 200 μL of MH2 media in all wells except for the wells in the first column. After compound and antibiotic addition, the compounds were serial two-fold diluted by transferring 200 μL from the first to the second column, then from the second to the third column and so on. Finally, 200 μL was removed from the last column.
Inoculum preparation. Microorganisms used were all revived from 20% glycerol (40% v/v glycerol in water was diluted with MH2) storage at −80° C. by inoculating them in 5 mL MH2. inoculums of E. coli containing a plasmid were selected for by adding 50 μg/mL KanaA. The Inoculums were grown to an optical density (measured by UV/Vis spectroscopy) of 0.6-0.8 at 600 nm. Out of these suspensions, actual inoculums were prepared by diluting them to an optical density (OD) of 0.1 in MH2 media. From these inoculums, 200 μL was transferred to each well, resulting in a final compound concentration range of 64 μM-31.3 nM. All plates were incubated at 900 rpm and 70% rH for 18 h at 37° C.
(§3) MIC determination. After 18 h of growth, 200 μL was transferred to a 96-well F-bottom plate. The optical density was determined by a plate reader at 600 nm, with 10 s shaking before reading. Triplicate measurements were averaged, and a growth curve was plotted in Microsoft Excel. The first column in which the growth reached half the value of maximum growth was determined as the MIC50 value for that particular compound.
(§4) MIC50. The MIC50 of a compound was assigned at which the bacterial growth reached half the value of maximum growth.

[1] = tested on: Enterobacter cloacae 3MRGN (clinical bronchial aspirate isolate); test: MIC 50, broth micro-dilution, clinical isolate; assay type: cell-based; conditions: Enterobacter cloacae, E. Cloacae clinical isolate; read-out: MIC 50
Text: (§5) 3.2 Against Selected Bacteria of the ESKAPE Panel and Enterococcus faecalis (DSM Strains)
as §1
(§6) Microbial strains. Enterococcus faecalis DSM 2570, Klebsiella pneumoniae DSM 26371, Acinetobacter baumannii DSM 105126, Enterobacter cloacae 3MRGN (clinical bronchial aspirate isolate).
(§7) Culture media and equipment. BBL™ Mueller Hinton Broth 2 (Lot. BCBW1143, Cat. No. 70192, Sigma); Trypcase Soy Blood-agar plates (Cat. No. 43001, Biomérieux); Cryoinstant (contains 15% glycerol; Cat. No. 822070ZA, VWR International); GasPak™ EZ Standard Incubation Container (Cat. No. 260671, Becton Dickinson); GasPak™ EZ Campy Container System Sachets (Cat. No. 260680, Becton Dickinson); 96-well deep well plate, 1 mL (Cat. No. 0030506.200, Eppendorf); Plate lid (Cat. No. 0030131.525, Eppendorf); 96-well plate, F-bottom (Cat. No. 260860, Nunc); Incubator (Sartorius Certomat BS-1); Laminar flow (Heraeus HS12); UV/VIS meter (Perkin Elmer Lambda Bio+); Platereader (Tecan Infinite M200 Pro).
as §2, with “MH2, for tests against E. faecalis a solution of 512 μM was prepared.” for “MH2.”
(§8) Inoculum preparation. Microorganisms used were all revived from 15% glycerol storage in Croinstant tubes at −28° C. by plating them on blood agar plates. A. baumanni, and E. cloacae were grown aerobically at 37° C., E. faecalis was grown microaerophilically at 37° C., and K. pneumoniae was grown aerobically at 37° C. Plates were stored at 4° C. for up to two weeks, after which new plates were prepared from −28° C. A single colony was inoculated in MH2 media and grown at 37° C. and 200 rpm to an optical density (measured by UV/Vis spectroscopy) of 0.6-0.8 at 600 nm. Out of these suspensions, actual inoculums were prepared by diluting them to an optical density of 0.1 in MH2 media. From these inoculums, 200 μL was transferred to each well, resulting in a final compound concentration range of 64 μM-31.3 nM for, K. pneumoniae, A. baumanni, and E. cloacae, and 256 μM-125 nM for E. faecalis. Plates inoculated with E. faecalis were placed inside a GasPak™ Container System with GasPak™ Campy Container System sachets. All plates were incubated at 200 rpm for 18 h under the microorganism culturing conditions mentioned above.
as §3, with “in” for “in Microsoft”
as §4

A. baumannii DSM 105126 = test: MIC 50, broth micro-dilution, DSM strains; assay type: cell-based, Acinetobacter baumannii; conditions: Acinetobacter baumannii, DSM105126, read-out: MIC 50
Text: as §5, §1, §6, §7
as §2, with “MH2, for tests against E. faecalis a solution of 512 μM was prepared.” for “MH2.”
as §8
as §3, with “in” for “in Microsoft”
as §4

| SMILES | MIC50 (E. coli ATCC25922 strain) [µM] | MIC50 [1] [µM] | MIC50 (A. baumannii DSM 105126) [µM] |
| --- | --- | --- | --- |
| N=C(NCC1CC1)NC1[C@@H](O)C(OC2[C@@H](F)[C@H](O[C@H]3OC(CN)[C@@H](O)CC3N)C(N)C[C@H]2NC(=O)[C@@H](O)CCN)O[C@H](CO)[C@H]1O (stereo partly drawn) [ABX5027, Tobra-AHB-F-Gua cyclopropylmethyl] | 0.5 (≈ 0.333 µg/mL) | 0.5 (≈ 0.333 µg/mL) | 0.125 (≈ 0.0833 µg/mL) |
| N=C(NCCO)NC1[C@@H](O)C(OC2[C@@H](F)[C@H](O[C@H]3OC(CN)[C@@H](O)CC3N)C(N)C[C@H]2NC(=O)[C@@H](O)CCN)O[C@H](CO)[C@H]1O (stereo partly drawn) [ABX5029, Tobra-AHB-F-Gua 2-hydroxy-ethyl] | 0.5 (≈ 0.328 µg/mL) | 1 (≈ 0.657 µg/mL) | 0.0625 (≈ 0.041 µg/mL) |
| N=C(NCCCN)NC1[C@@H](O)C(OC2[C@@H](F)[C@H](O[C@H]3OC(CN)[C@@H](O)CC3N)C(N)C[C@H]2NC(=O)[C@@H](O)CCN)O[C@H](CO)[C@H]1O (stereo partly drawn) [ABX5030, Tobra-AHB-F-Gua-3-amino-propyl] | 0.25 (≈ 0.167 µg/mL) | 1 (≈ 0.67 µg/mL) | 0.0312 to 0.0625 (≈ 0.0209 to 0.0419 µg/mL) |
| CNCCNC(=N)NC1[C@@H](O)C(OC2[C@@H](F)[C@H](O[C@H]3OC(CN)[C@@H](O)CC3N)C(N)C[C@H]2NC(=O)[C@@H](O)CCN)O[C@H](CO)[C@H]1O (stereo partly drawn) [ABX5038, Tobra-AHB-F-Gua 2-(methylamino)ethyl] | 0.25 (≈ 0.167 µg/mL) | 0.5 (≈ 0.335 µg/mL) | 0.0625 to 0.125 (≈ 0.0419 to 0.0837 µg/mL) |
| N=C(NC[C@@H]1CCNC1)NC1[C@@H](O)C(OC2[C@@H](F)[C@H](O[C@H]3OC(CN)[C@@H](O)CC3N)C(N)C[C@H]2NC(=O)[C@@H](O)CCN)O[C@H](CO)[C@H]1O (stereo partly drawn) [ABX5039, Tobra-AHB-F-Gua (R) pyrrolidine-3-ylmethyl] | 0.25 (≈ 0.174 µg/mL) | 0.25 (≈ 0.174 µg/mL) | 0.0625 (≈ 0.0435 µg/mL) |
| N=C(NC[C@@H]1CNCCO1)NC1[C@@H](O)C(OC2[C@@H](F)[C@H](O[C@H]3OC(CN)[C@@H](O)CC3N)C(N)C[C@H]2NC(=O)[C@@H](O)CCN)O[C@H](CO)[C@H]1O (stereo partly drawn) [ABX5040, Tobra-AHB-F-Gua (S) morpholin-2-yl methyl] | 0.5 (≈ 0.356 µg/mL) | 0.25 (≈ 0.178 µg/mL) | 0.0625 to 0.125 (≈ 0.0445 to 0.089 µg/mL) |
| N=C(NCCCO)NC1[C@@H](O)C(OC2[C@@H](F)[C@H](O[C@H]3OC(CN)[C@@H](O)CC3N)C(N)C[C@H]2NC(=O)[C@@H](O)CCN)O[C@H](CO)[C@H]1O (stereo partly drawn) [ABX5041, Tobra-AHB-F-Gua 3-hydroxy-propyl] | 0.5 (≈ 0.335 µg/mL) | 1 (≈ 0.671 µg/mL) | 0.25 (≈ 0.168 µg/mL) |
| N=C(NC[C@H]1CCNC1)NC1[C@@H](O)C(OC2[C@@H](F)[C@H](O[C@H]3OC(CN)[C@@H](O)CC3N)C(N)C[C@H]2NC(=O)[C@@H](O)CCN)O[C@H](CO)[C@H]1O (stereo partly drawn) [ABX5042, Tobra-AHB-F-Gua (S) pyrrolidine-3-ylmethyl] | 0.25 (≈ 0.174 µg/mL) | 0.25 (≈ 0.174 µg/mL) | 0.0625 (≈ 0.0435 µg/mL) |
